These are literature values, as cited in US11890366B2, “Method for dyeing keratin material, comprising the use of an organic C1-C6 alkoxy silane and a copolymer of styrene and maleic acid (anhydride)” (Henkel AG & Co. KGaA, priority 2019, dated 2024).

For the compound `CCN(Cc1cccc(S(=O)(=O)[O-])c1)c1ccc(C(=C2C=CC(=[N+](CC)Cc3cccc(S(=O)(=O)[O-])c3)C=C2)c2ccccc2S(=O)(=O)[O-])cc1.[Na+].[Na+]` [Acid Blue 9], the water solubility result (25° C.) was “greater than 20 % by weight”.
On to `O=S(=O)([O-])c1ccc(N=Nc2c(O)ccc3ccccc23)cc1.[Na+]` [Acid Orange 7, sodium salt of 4-[(2-hydroxy-1-naphthyl)azo]benzenesulfonate], for which the solubility in water result (25° C.) is “more than 7 g/L”.
Take `Nc1cc(S(=O)(=O)[O-])cc2cc(S(=O)(=O)[O-])c(N=Nc3ccccc3)c(O)c12.[Na+].[Na+]` [Acid Red 33, dinatrium salt of 5-amino-4-hydroxy-3-(phenylazo)-naphthalene-2,7-disulphonate]: the solubility in water (25° C.) was 2500 µg/mL.
As for `O=C([O-])c1c(Cl)c(Cl)c(Cl)c(Cl)c1-c1c2c(Br)cc(=O)c(Br)c-2oc2c(Br)c(O)cc(Br)c12.O=C([O-])c1c(Cl)c(Cl)c(Cl)c(Cl)c1-c1c2c(Br)cc(=O)c(Br)c-2oc2c(Br)c(O)cc(Br)c12.[Na+].[Na+]` [Acid Red 92, disodium salt of 3,4,5,6-tetrachloro-2-(1,4,5,8-tetrabromo-6-hydroxy-3-oxoxanthen-9-yl)benzoic acid], under “25° C.”, the solubility in water entry is reported as “greater than 10 g/L”.
For `O=C([O-])C1=NN(c2ccc(S(=O)(=O)[O-])cc2)C(=O)C1N=Nc1ccc(S(=O)(=O)[O-])cc1.[Na+].[Na+].[Na+]` (centres unmarked) [Acid Yellow 23, trisodium salt of 4,5-dihydro-5-oxo-1-(4-sulfophenyl)-4-((4-sulfophenyl)azo)-1H-pyrazole-3-carboxylic acid], the “solubility in water (in words)” value (water at 25° C.) is “readily soluble”.
